ChEMBL document CHEMBL1201862, “PubChem BioAssay data set” (2004)
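Cultured in 96-well plates, cells were exposed to test compound for 48 hours across five concentrations. At the GI50, growth is halved.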 Calls of active or inactive are those of the source. Cut-off read from the data, not from the text of the source: active = GI50 up to about 1.1 µM and inactive = higher.

Key:
Experiment in all cases: DTP human tumour cell line panel, 48 h
[1] = test system: OVCAR-3
[2] = test system: LOX IMVI
[3] = test system: SK-MEL-28
[4] = test system: COLO 205
[5] = test system: UACC-257
[6] = test system: SW-620
[7] = test system: EKVX
[8] = test system: Malme-3M
[9] = test system: RXF 393
[10] = test system: IGROV-1
[11] = test system: M14
[12] = test system: NCI-H460
[13] = test system: DU-145
[14] = test system: OVCAR-4
[15] = test system: MDA-MB-231
[16] = test system: SF-295
[17] = test system: MDA-N
[18] = test system: HOP-62
[19] = test system: HL-60
[20] = test system: UACC-62

Measured: GI50

CC1(C)CCC2=C(O1)/C(=N\Nc1ccc(F)cc1)c1ccccc1C2=O
inactive: [1] 21 µM | [2] 11.5 µM | [3] 26.2 µM | [4] 35.1 µM | [5] 17.3 µM | [6] 25.5 µM | [7] 22.4 µM | [8] 30.6 µM | [9] 35.2 µM | [10] 31.9 µM | [11] 20.1 µM | [12] 23.9 µM | [13] 18.4 µM | [14] 34.4 µM | [15] 46.7 µM | [16] 20.7 µM | [17] 17.7 µM | [18] 21.7 µM | [19] 16 µM | [20] 14.7 µM

C=CC(OC(C)=O)c1ccc(OC(=O)C(C)C)c(OC)c1 (stereo not given)
inactive: [1] 5.81 µM | [2] 1.95 µM | [3] 11.1 µM | [4] 2.49 µM | [5] 9.86 µM | [6] 2.6 µM | [7] 7.5 µM | [8] 1.94 µM | [9] 3.18 µM | [10] 12.9 µM | [11] 5.6 µM | [12] 11.4 µM | [13] 11.5 µM | [14] 4.9 µM | [15] 4.72 µM | [16] 10.5 µM | [17] 5.22 µM | [18] 10.2 µM | [19] 2.79 µM | [20] 13.3 µM

CCOC(=O)/C(C(=O)Nc1cccc(Cl)c1)=C(/N)N1CCOCC1
inactive: [1] > 100 µM | [2] > 100 µM | [3] > 100 µM | [4] > 100 µM | [5] > 100 µM | [6] > 100 µM | [7] > 100 µM | [8] > 100 µM | [9] > 100 µM | [10] > 100 µM | [11] > 100 µM | [12] > 100 µM | [13] > 100 µM | [14] > 100 µM | [15] > 100 µM | [16] > 100 µM | [17] > 100 µM | [18] > 100 µM | [19] > 100 µM | [20] > 100 µM

C=C(C)CNC(=S)N(N)c1ccc2ccccc2c1
inactive: [1] 88.5 µM | [2] > 100 µM | [3] > 100 µM | [4] > 100 µM | [5] > 100 µM | [6] > 100 µM | [7] 24.7 µM | [8] > 100 µM | [9] > 100 µM | [10] 11.4 µM | [11] > 100 µM | [12] > 100 µM | [13] > 100 µM | [14] > 100 µM | [15] > 100 µM | [16] 94.2 µM | [17] > 100 µM | [18] > 100 µM | [19] 57.3 µM | [20] 23.9 µM

C(=C\c1cccs1)/c1cccc(/C=C/c2cccs2)n1
inactive: [1] 50.8 µM | [2] > 100 µM | [3] > 100 µM | [4] 32.1 µM | [5] > 100 µM | [6] 24.8 µM | [7] > 100 µM | [8] 1.72 µM | [9] > 100 µM | [10] 50 µM | [11] > 100 µM | [12] 36.4 µM | [13] > 100 µM | [14] 12.4 µM | [15] > 100 µM | [16] > 100 µM | [17] > 100 µM | [18] 83 µM | [19] > 100 µM | [20] > 100 µM

CC(=O)OCc1cncn1S(=O)(=O)c1ccc(C)cc1
inactive: [1] 43.5 µM | [2] 30.8 µM | [3] > 100 µM | [4] 53.1 µM | [5] > 100 µM | [6] 36.4 µM | [7] > 100 µM | [8] > 100 µM | [9] > 100 µM | [10] > 74 µM | [11] 42.2 µM | [12] 29.9 µM | [13] > 100 µM | [14] > 76.7 µM | [15] > 100 µM | [16] > 100 µM | [17] 9.46 µM | [18] > 100 µM | [19] 10.8 µM | [20] > 91 µM
